Patent US6737383B1, “Herbicidal oxadiazolidines” (priority 1999, dated 2004)

How the values were obtained:
wild oat = test: Test B pre/postemergence wild oat; type: in vivo, Avena fatua
Method in brief: (§1)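 Response is a visual 0-to-10 score relative to untreated plants, where 0 means no effect and 10 means complete control, taken twelve to sixteen days after application. Treatments went onto soil at planting and onto foliage of 1- to 4-leaf plants, using a surfactant-containing non-phytotoxic solvent.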

purple nutsedge = test: Test B pre/postemergence purple nutsedge; type: in vivo, Cyperus rotundus
Method in brief: as §1

sugar beet = test: Test B pre/postemergence sugar beet; type: in vivo, Beta vulgaris
Method in brief: as §1

cocklebur = test: Test B pre/postemergence cocklebur; type: in vivo, Xanthium strumarium
Method in brief: as §1

pigweed = test: Test B pre/postemergence pigweed; type: in vivo, Amaranthus retroflexus
Method in brief: as §1

wheat = test: Test B pre/postemergence wheat; type: in vivo, Triticum aestivum
Method in brief: as §1

rape = test: Test B pre/postemergence rape; type: in vivo, Brassica napus
Method in brief: as §1

velvetleaf = test: Test B pre/postemergence velvetleaf; type: in vivo, Abutilon theophrasti
Method in brief: as §1

soybean = test: Test B pre/postemergence soybean; type: in vivo, Glycine max
Method in brief: as §1

corn = test: Test B pre/postemergence corn; type: in vivo, Zea mays
Method in brief: as §1

crabgrass = test: Test B pre/postemergence crabgrass; type: in vivo, Digitaria sanguinalis
Method in brief: as §1

surinam grass = test: Test B pre/postemergence surinam grass; type: in vivo, Brachiaria decumbens; details: Postemergence
Method in brief: as §1

morningglory = test: Test B pre/postemergence morningglory; type: in vivo, Ipomoea hederacea
Method in brief: as §1

bedstraw = test: Test B pre/postemergence bedstraw; type: in vivo, Galium aparine
Method in brief: as §1

blackgrass = test: Test B pre/postemergence blackgrass; type: in vivo, Alopecurus myosuroides
Method in brief: as §1

giant foxtail = test: Test B pre/postemergence giant foxtail; type: in vivo, Setaria faberii
Method in brief: as §1

[1] = Postemergence, Rate 62 g/ha, scale 0 to 10, 0 is no effect, 10 is complete control
[2] = Postemergence, Rate 125 g/ha, scale of 0 to 10 where 0 is no effect and 10 is complete control
[3] = Preemergence, Rate 125 g/ha, scale of 0 to 10 where 0 is no effect and 10 is complete control
[4] = Preemergence, Rate 250 g/ha, scale 0 (no effect) to 10 (complete control)
[5] = Rate 62 g/ha, Preemergence, scale 0 to 10
[6] = Rate 250 g/ha, Postemergence, scale 0 to 10, 0 is no effect, 10 is complete control
[7] = Rate 500 g/ha, Postemergence, scale 0 to 10, 0 is no effect, 10 is complete control
[8] = Rate 500 g/ha, Preemergence, scale 0 to 10 (0 no effect, 10 complete control)

SMILES: CCC(C)n1c(=O)on(C(=O)N(c2ccc(F)cc2)C(C)C)c1=O (stereo not shown) [Compound 751]
- Plant response rating, Wild oats (wild oat; [1]): 0
- Wild oats plant response rating (wild oat; [2]): 0
- Plant response rating, Wild oats (wild oat; [3]): 8
- Wild oats plant response rating (wild oat; [4]): 10
- Wild oats plant response rating (wild oat; [5]): 3
- Wild oats plant response rating (wild oat; [6]): 3
- Wild oats plant response rating (wild oat; [7]): 5
- Wild oats plant response rating (wild oat; [8]): 10
- Plant response rating, Nutsedge (purple nutsedge; [1]): 0
- Nutsedge plant response rating (purple nutsedge; [2]): 0
- Plant response rating, Nutsedge (purple nutsedge; [3]): 0
- Nutsedge plant response rating (purple nutsedge; [4]): 0
- Nutsedge plant response rating (purple nutsedge; [5]): 0
- Nutsedge plant response rating (purple nutsedge; [6]): 0
- Nutsedge plant response rating (purple nutsedge; [7]): 10
- Nutsedge plant response rating (purple nutsedge; [8]): 0
- Plant response rating, Sugarbeets (sugar beet; [1]): 3
- Sugarbeets plant response rating (sugar beet; [2]): 3
- Plant response rating, Sugarbeets (sugar beet; [3]): 2
- Sugarbeets plant response rating (sugar beet; [4]): 5
- Sugarbeets plant response rating (sugar beet; [5]): 2
- Sugarbeets plant response rating (sugar beet; [6]): 3
- Sugarbeets plant response rating (sugar beet; [7]): 3
- Sugarbeets plant response rating (sugar beet; [8]): 7
- Plant response rating, Cocklebur (cocklebur; [1]): 0
- Cocklebur plant response rating (cocklebur; [2]): 2
- Plant response rating, Cocklebur (cocklebur; [3]): 0
- Cocklebur plant response rating (cocklebur; [4]): 0
- Cocklebur plant response rating (cocklebur; [5]): 0
- Cocklebur plant response rating (cocklebur; [6]): 2
- Cocklebur plant response rating (cocklebur; [7]): 2
- Cocklebur plant response rating (cocklebur; [8]): 0
- Redroot pigweed plant response rating (pigweed; [2]): 6
- Plant response rating, Redroot pigweed (pigweed; [3]): 10
- Redroot pigweed plant response rating (pigweed; [4]): 10
- Redroot pigweed plant response rating (pigweed; [5]): 10
- Redroot pigweed plant response rating (pigweed; [6]): 9
- Redroot pigweed plant response rating (pigweed; [7]): 9
- Redroot pigweed plant response rating (pigweed; [8]): 10
- Plant response rating, Wheat (wheat; [1]): 0
- Wheat plant response rating (wheat; [2]): 0
- Plant response rating, Wheat (wheat; [3]): 4
- Wheat plant response rating (wheat; [4]): 5
- Wheat plant response rating (wheat; [5]): 0
- Wheat plant response rating (wheat; [6]): 5
- Wheat plant response rating (wheat; [7]): 3
- Wheat plant response rating (wheat; [8]): 10
- Plant response rating, Rape (rape; [1]): 2
- Rape plant response rating (rape; [2]): 3
- Plant response rating, Rape (rape; [3]): 6
- Rape plant response rating (rape; [4]): 7
- Rape plant response rating (rape; [5]): 4
- Rape plant response rating (rape; [6]): 5
- Rape plant response rating (rape; [7]): 5
- Rape plant response rating (rape; [8]): 9
- Plant response rating, Velvetleaf (velvetleaf; [1]): 0
- Velvetleaf plant response rating (velvetleaf; [2]): 2
- Plant response rating, Velvetleaf (velvetleaf; [3]): 8
- Velvetleaf plant response rating (velvetleaf; [4]): 8
- Velvetleaf plant response rating (velvetleaf; [5]): 7
- Velvetleaf plant response rating (velvetleaf; [6]): 2
- Velvetleaf plant response rating (velvetleaf; [7]): 3
- Velvetleaf plant response rating (velvetleaf; [8]): 8
- Plant response rating, Soybean (soybean; [1]): 2
- Soybean plant response rating (soybean; [2]): 3
- Plant response rating, Soybean (soybean; [3]): 0
- Soybean plant response rating (soybean; [4]): 7
- Soybean plant response rating (soybean; [5]): 0
- Soybean plant response rating (soybean; [6]): 7
- Soybean plant response rating (soybean; [7]): 7
- Soybean plant response rating (soybean; [8]): 9
- Plant response rating, Corn (corn; [1]): 0
- Corn plant response rating (corn; [2]): 0
- Plant response rating, Corn (corn; [3]): 4
- Corn plant response rating (corn; [4]): 8
- Corn plant response rating (corn; [5]): 0
- Corn plant response rating (corn; [6]): 0
- Corn plant response rating (corn; [7]): 2
- Corn plant response rating (corn; [8]): 9
- Plant response rating, Crabgrass (crabgrass; [1]): 7
- Crabgrass plant response rating (crabgrass; [2]): 8
- Plant response rating, Crabgrass (crabgrass; [3]): 10
- Crabgrass plant response rating (crabgrass; [4]): 10
- Crabgrass plant response rating (crabgrass; [5]): 10
- Crabgrass plant response rating (crabgrass; [6]): 9
- Crabgrass plant response rating (crabgrass; [7]): 9
- Crabgrass plant response rating (crabgrass; [8]): 10
- Plant response rating, B. signalgrass (surinam grass; Rate 62 g/ha, scale 0 to 10, 0 is no effect, 10 is complete control): 3
- B. signalgrass plant response rating (surinam grass; Rate 125 g/ha, scale of 0 to 10 where 0 is no effect and 10 is complete control): 3
- B. signalgrass plant response rating (surinam grass; Rate 250 g/ha, scale 0 to 10, 0 is no effect, 10 is complete control): 6
- B. signalgrass plant response rating (surinam grass; Rate 500 g/ha, scale 0 to 10, 0 is no effect, 10 is complete control): 7
- Plant response rating, Morningglory (morningglory; [1]): 8
- Morningglory plant response rating (morningglory; [2]): 8
- Plant response rating, Morningglory (morningglory; [3]): 5
- Morningglory plant response rating (morningglory; [4]): 5
- Morningglory plant response rating (morningglory; [5]): 0
- Morningglory plant response rating (morningglory; [6]): 8
- Morningglory plant response rating (morningglory; [7]): 9
- Morningglory plant response rating (morningglory; [8]): 5
- Plant response rating, Bedstraw (bedstraw; [1]): 0
- Bedstraw plant response rating (bedstraw; [2]): 5
- Plant response rating, Bedstraw (bedstraw; [3]): 2
- Bedstraw plant response rating (bedstraw; [4]): 9
- Bedstraw plant response rating (bedstraw; [7]): 7
- Bedstraw plant response rating (bedstraw; [8]): 10
- Plant response rating, Blackgrass (blackgrass; [1]): 6
- Blackgrass plant response rating (blackgrass; [2]): 6
- Plant response rating, Blackgrass (blackgrass; [3]): 10
- Blackgrass plant response rating (blackgrass; [4]): 10
- Blackgrass plant response rating (blackgrass; [5]): 9
- Blackgrass plant response rating (blackgrass; [6]): 6
- Blackgrass plant response rating (blackgrass; [7]): 7
- Blackgrass plant response rating (blackgrass; [8]): 10
- Plant response rating, Giant foxtail (giant foxtail; [1]): 8
- Giant foxtail plant response rating (giant foxtail; [2]): 9
- Plant response rating, Giant foxtail (giant foxtail; [3]): 10
- Giant foxtail plant response rating (giant foxtail; [4]): 10
- Giant foxtail plant response rating (giant foxtail; [5]): 10
- Giant foxtail plant response rating (giant foxtail; [6]): 9
- Giant foxtail plant response rating (giant foxtail; [7]): 9
- Giant foxtail plant response rating (giant foxtail; [8]): 10
